These results are taken from US6340560B1, “Aminopolycarboxylic acid chelating agent, heavy metal chelate compound thereof, photographic additive and processing method” (Fuji Photo Film Co., Ltd., priority 1996, dated 2002).

The series is described as follows: Example 12: biodegradability, 302 Revised Zahn-Wellens test (OECD Chemical Test Guideline).

`CN(CCN(C)[C@@H](CC(=O)O)C(=O)O)[C@@H](CC(=O)O)C(=O)O` [Compound 32] came in with a biodegradable of 70%. The same measure, in the same setting: then `CN(CCN(C)[C@@H](CCC(=O)O)C(=O)O)[C@@H](CCC(=O)O)C(=O)O` [Compound 45], with 70%.

In the case of `O=C(O)CN(CCN(CC(=O)O)CC(=O)O)CC(=O)O` [Ethylenediaminetetraacetic acid, reference compound], the “biodegradability (in words)” value is given as “scarcely biodegradable”.
